Measured values taken from patent US10392404B2, “Compounds and compositions as kinase inhibitors” (NOVARTIS AG, priority 2014, dated 2019).
pIC50: −log10 of the molar value.

Key:
[1] = molecular target: T1, b-Raf (V600E) (Homo sapiens, UniProt P15056, V600E); assay: In vitro Raf activity determination (Alpha Screen, biotinylated kinase-dead MEK1 substrate), B-Raf; type: biochemical; conditions: b-Raf (V600E) approximately 4 pM; ATP 10 μM; pre-incubation 60 minutes; reaction 3 hours at room temperature
T1 construct: made in house
How it was run: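 IC50 from non-linear regression of AlphaScreen phospho-MEK signal (anti-p-MEK1/2 antibody). b-Raf(V600E), about 4 pM, phosphorylated ~10 nM biotinylated K97R MEK1 with 10 μM ATP for 3 h at room temperature after 60 min compound pre-incubation; buffer pH 7.5 Tris, 15 mM MgCl2, 1 mM DTT.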

[2] = molecular target: T2, C-RAF (Homo sapiens, UniProt P04049, Y340E/Y341E); assay: In vitro Raf activity determination (Alpha Screen, biotinylated kinase-dead MEK1 substrate), C-Raf; type: biochemical; conditions: c-Raf approximately 4 nM; ATP 1 μM; pre-incubation 60 minutes; reaction 1 hour at room temperature
T2 construct: His tag (implied by nickel chromatography) (cleaved yes); StrepII tag (cleaved yes); made in house; host or cells: Sf9 insect cells (baculovirus), CRAF and h14-3-3 zeta co-expressed; MEK1 substrate from E. coli
How it was run: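 AlphaScreen read-out of MEK phosphorylation using an anti-phospho-MEK1/2 antibody after a 1 hour room-temperature reaction at 1 μM ATP. Enzyme: approximately 4 nM Sf9-expressed full-length activated C-Raf (Y340E/Y341E, with 14-3-3ζ) on approximately 10 nM biotinylated K97R MEK1, after 60 min compound preincubation. IC50 by non-linear fit.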

T2 sequence (P04049 whole entry Y340E/Y341E): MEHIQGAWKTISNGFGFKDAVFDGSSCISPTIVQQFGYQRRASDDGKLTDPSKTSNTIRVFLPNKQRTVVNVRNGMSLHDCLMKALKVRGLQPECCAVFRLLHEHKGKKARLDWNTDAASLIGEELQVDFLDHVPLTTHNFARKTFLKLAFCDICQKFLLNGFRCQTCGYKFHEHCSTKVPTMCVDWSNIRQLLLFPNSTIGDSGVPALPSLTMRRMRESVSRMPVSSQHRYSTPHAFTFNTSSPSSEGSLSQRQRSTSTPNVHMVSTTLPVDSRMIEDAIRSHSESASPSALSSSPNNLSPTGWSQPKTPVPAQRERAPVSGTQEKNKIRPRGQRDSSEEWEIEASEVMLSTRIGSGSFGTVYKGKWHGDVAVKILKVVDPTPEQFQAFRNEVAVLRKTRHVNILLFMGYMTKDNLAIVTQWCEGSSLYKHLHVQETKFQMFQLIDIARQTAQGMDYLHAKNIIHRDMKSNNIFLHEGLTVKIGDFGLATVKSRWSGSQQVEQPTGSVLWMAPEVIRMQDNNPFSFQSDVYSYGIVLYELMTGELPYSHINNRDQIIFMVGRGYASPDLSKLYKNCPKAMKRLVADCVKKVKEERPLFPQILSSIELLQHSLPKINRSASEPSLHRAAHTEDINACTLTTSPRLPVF
T2 sequence (P63104 whole entry partner): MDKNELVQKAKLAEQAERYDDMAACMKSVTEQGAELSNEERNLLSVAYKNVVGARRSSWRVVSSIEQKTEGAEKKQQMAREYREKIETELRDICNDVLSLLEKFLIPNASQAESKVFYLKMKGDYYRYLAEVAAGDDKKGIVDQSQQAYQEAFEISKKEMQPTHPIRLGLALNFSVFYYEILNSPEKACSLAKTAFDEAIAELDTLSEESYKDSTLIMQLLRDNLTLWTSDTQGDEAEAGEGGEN
T1 sequence (P15056 whole entry V600E): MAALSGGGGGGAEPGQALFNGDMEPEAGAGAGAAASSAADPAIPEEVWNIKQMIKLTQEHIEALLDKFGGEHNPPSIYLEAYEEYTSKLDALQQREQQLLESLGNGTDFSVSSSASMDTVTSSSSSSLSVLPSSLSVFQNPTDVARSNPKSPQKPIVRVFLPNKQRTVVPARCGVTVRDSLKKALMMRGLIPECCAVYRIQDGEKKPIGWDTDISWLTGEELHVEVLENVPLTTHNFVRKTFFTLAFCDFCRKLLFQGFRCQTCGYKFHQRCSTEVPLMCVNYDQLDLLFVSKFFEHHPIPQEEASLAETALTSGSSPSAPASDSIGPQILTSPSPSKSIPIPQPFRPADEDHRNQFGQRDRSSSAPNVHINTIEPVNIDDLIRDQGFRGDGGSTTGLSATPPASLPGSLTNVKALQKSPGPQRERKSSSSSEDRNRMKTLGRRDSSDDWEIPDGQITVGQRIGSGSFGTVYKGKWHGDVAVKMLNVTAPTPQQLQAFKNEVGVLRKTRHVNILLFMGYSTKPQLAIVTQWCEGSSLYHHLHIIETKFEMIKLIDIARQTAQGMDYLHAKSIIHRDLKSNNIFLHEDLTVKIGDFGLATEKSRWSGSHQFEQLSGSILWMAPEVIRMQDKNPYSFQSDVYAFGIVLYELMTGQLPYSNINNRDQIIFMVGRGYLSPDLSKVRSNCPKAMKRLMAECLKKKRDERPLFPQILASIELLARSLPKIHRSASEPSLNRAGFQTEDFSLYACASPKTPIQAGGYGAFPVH

Structure (SMILES) | pIC50 [1] | pIC50 [2]
Cc1ncc(NC(=O)c2cccc(C(F)(F)F)c2)cc1-c1cnc(N2CCS(=O)(=O)CC2)c(C#N)c1 [Example 85, N-(5′-cyano-6′-(1,1-dioxidothiomorpho-lino)-2-methyl-[3,3′-bipyridin]-5-yl)-3-(trifluoromethyl) benzamide] | 8.88 | 9.64
Cc1ncc(NC(=O)c2ccnc(C(F)(F)F)c2)cc1-c1cnc(N2CCS(=O)(=O)CC2)c(C#N)c1 [Example 86, N-(5′-cyano-6′-(1,1-dioxidothiomorpho-lino)-2-methyl-[3,3′-bipyridin]-5-yl)-2-(trifluoromethyl) isonicotinamide] | 8.53 | 9.36
Cc1ncc(NC(=O)c2ccnc(C(C)(C)C#N)c2)cc1-c1cnc(N2C[C@H]3CC[C@@H](C2)O3)c(C#N)c1 [Example 88, N-(6′-((1R,5S)-8-oxa-3-azabicyclo[3,2,1]octan-3-yl)-5′-cyano-2-methyl-[3,3′-bipyridin]-5-yl)-2-(2-cyanopropan-2-yl)isonicotinamide] | 8.69 | 9.21
Cc1ncc(NC(=O)c2ccnc(C(C)(C)C#N)c2)cc1-c1cnc(N2C[C@H]3C[C@@H]2CO3)c(C#N)c1 [Example 90, N-(6′-((1R,4R)-2-oxa-5-azabicyclo[2.2.1]heptan-5-yl)-5′-cyano-2-methyl-[3,3′-bipyridin]-5-yl)-2-(2-cyanopropan-2-yl)isonicotinamide] | 8.05 | 8.68
Cc1ncc(NC(=O)c2ccnc(C(C)(C)C#N)c2)cc1-c1cnc(N2[C@@H]3CC[C@H]2COC3)c(C#N)c1 [Example 91, N-(6′-((1R,5S)-3-oxa-8-azabicyclo[3.2.1]octan-8-yl)-5′-cyano-2-methyl-[3,3′-bipyridin]-5-yl)-2-(2-cyanopropan-2-yl)isonicotinamide] | 8.44 | 9.00
COCCOc1ncc(-c2cc(NC(=O)c3ccnc(C(F)(F)F)c3)cnc2C)cc1C#N [Example 93, N-(5′-cyano-6′-(2-methoxyethoxy)-2-methyl-[3,3′-bipyridin]-5-yl)-2-(trifluoromethyl) isonicotinamide] | 8.16 | 8.76
Cc1ncc(NC(=O)c2ccnc(C(C)(C)C#N)c2)cc1-c1cnc(OC2COC2)c(C#N)c1 [Example 94, N-(5′-cyano-2-methyl-6′-(oxetan-3-yloxy)-[3,3′-bipyridin]-5-yl)-2-(2-cyanopropan-2-yl)isonicotinamide] | 7.63 | 8.22
Cc1ncc(NC(=O)c2ccnc(C(F)(F)F)c2)cc1-c1cnc(OC2COC2)c(C#N)c1 [Example 95, N-(5′-cyano-2-methyl-6′-(oxetan-3-yloxy)-[3,3′-bipyridin]-5-yl)-2-(trifluoromethyl) isonicotinamide] | 7.89 | 8.63

More lines, now with the values ahead:

pIC50 [1] | pIC50 [2] | Structure (SMILES)
7.60 | 8.29 | Cc1cn(-c2ncc(-c3cc(NC(=O)c4ccnc(C(C)(C)C#N)c4)cnc3C)cc2C#N)cn1 [Example 84, N-(5′-cyano-2-methyl-6′-(4-methyl-1H-imidazol-1-yl)-[3,3′-bipyridin]-5-yl)-2-(2-cyanopropan-2-yl)isonicotinamide]
8.52 | 8.94 | Cc1ncc(NC(=O)c2ccnc(C(C)(C)C#N)c2)cc1-c1cnc(N2CCOC[C@@H]2C)c(C#N)c1 [Example 87, (S)-N-(5′-cyano-2-methyl-6′-(3-methylmorpholino)-[3,3′-bipyridin]-5-yl)-2-(2-cyanopropan-2-yl)isonicotinamide]
8.47 | 8.99 | Cc1ncc(NC(=O)c2ccnc(C(C)(C)C#N)c2)cc1-c1cnc(N2CCOC(C)(C)C2)c(C#N)c1 [Example 89, N-(5′-cyano-6′-(2,2-dimethylmorpholino)-2-methyl-[3,3′-bipyridin]-5-yl)-2-(2-cyanopropan-2-yl)isonicotinamide]
7.93 | 8.45 | Cc1ncc(NC(=O)c2ccnc(C(C)(C)C#N)c2)cc1-c1cnc(OC(C)C)c(C#N)c1 [Example 96, N-(5′-cyano-6′-isopropoxy-2-methyl-[3,3′-bipyridin]-5-yl)-2-(2-cyanopropan-2-yl)isonicotinamide]
